Test results published in the supplement of paper PMC10307832.

Tests used:
Test in all cases: relative viability (nuclei count vs DMSO), 5 days (fraction); higher = more cells survive
RERF-LC-KJ = tested on: RERF-LC-KJ
Method in brief: (§1)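 Values are medians from duplicate plates. Each reflects relative viability, defined as the nuclei count of treated wells over that of vehicle wells. Lung cancer cell lines in 1536-well plates were pin-tool dosed one day after seeding with one drug alone or with a fixed anchor-drug dose plus five library-drug doses (not always all listed) in √10 steps, then fixed, stained and imaged at 4× after 5 days.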

NCI-H460 = tested on: NCI-H460
Method in brief: as §1

NCI-H647 = tested on: NCI-H647
Method in brief: as §1

NCI-H2228 = tested on: NCI-H2228
Method in brief: as §1

NCI-H1734 = tested on: NCI-H1734
Method in brief: as §1

HOP-62 = tested on: HOP-62
Method in brief: as §1

A-427 = tested on: A-427
Method in brief: as §1

LC-2-ad = tested on: LC-2-ad
Method in brief: as §1

NCI-H2347 = tested on: NCI-H2347
Method in brief: as §1

SW 1573 = tested on: SW 1573
Method in brief: as §1

NCI-H2126 = tested on: NCI-H2126
Method in brief: as §1

HCC-78 = tested on: HCC-78
Method in brief: as §1

NCI-H1975 = tested on: NCI-H1975
Method in brief: as §1

NCI-H1792 = tested on: NCI-H1792
Method in brief: as §1

SK-LU-1 = tested on: SK-LU-1
Method in brief: as §1

LXF-289 = tested on: LXF-289
Method in brief: as §1

HCC-15 = tested on: HCC-15
Method in brief: as §1

NCI-H1755 = tested on: NCI-H1755
Method in brief: as §1

NCI-H1915 = tested on: NCI-H1915
Method in brief: as §1

PC-3 [JPC-3] = tested on: PC-3 [JPC-3]
Method in brief: as §1

LOU-NH91 = tested on: LOU-NH91
Method in brief: as §1

NCI-H358 = tested on: NCI-H358
Method in brief: as §1

Question: Which relative viability (RERF-LC-KJ; first compound 0.005 µM) does the source give for CC1(C)CCC(c2ccc(Cl)cc2)=C(CN2CCN(c3ccc(C(=O)NS(=O)(=O)c4ccc(N[C@H](CCN5CCOCC5)CSc5ccccc5)c(S(=O)(=O)C(F)(F)F)c4)cc3)CC2)C1 [Navitoclax] + C[C@@H](Oc1cc(-c2cnn(C3CCNCC3)c2)cnc1N)c1c(Cl)ccc(F)c1Cl [Crizotinib] (partner 1 µM) here?
Answer: 0.825

Question: What about the relative viability (RERF-LC-KJ; first compound 0.01581 µM) of the same compound?
Answer: 0.712

Question: And the relative viability (RERF-LC-KJ; first compound 0.05 µM)?
Answer: 0.789

Question: And the relative viability (RERF-LC-KJ; first compound 0.1581 µM)?
Answer: 0.796

Question: What about the relative viability (RERF-LC-KJ; first compound 0.5 µM) of the same compound?
Answer: 0.833

Question: What about the relative viability (NCI-H460; first compound 0.005 µM) of the same compound?
Answer: 0.805

Question: What about the relative viability (NCI-H460; first compound 0.01581 µM) of the same compound?
Answer: 0.915

Question: What about the relative viability (NCI-H460; first compound 0.05 µM) of the same compound?
Answer: 0.979

Question: And the relative viability (NCI-H460; first compound 0.1581 µM)?
Answer: 0.894

Question: And the relative viability (NCI-H460; first compound 0.5 µM)?
Answer: 0.874

Question: And the relative viability (NCI-H647; first compound 0.005 µM)?
Answer: 1.16

Question: And the relative viability (NCI-H647; first compound 0.01581 µM)?
Answer: 1.18

Question: And the relative viability (NCI-H647; first compound 0.05 µM)?
Answer: 1.42

Question: And the relative viability (NCI-H647; first compound 0.1581 µM)?
Answer: 0.874

Question: What about the relative viability (NCI-H647; first compound 0.5 µM) of the same compound?
Answer: 0.896

Question: What about the relative viability (NCI-H2228; first compound 0.005 µM) of the same compound?
Answer: 0.633

Question: And the relative viability (NCI-H2228; first compound 0.01581 µM)?
Answer: 0.553

Question: And the relative viability (NCI-H2228; first compound 0.05 µM)?
Answer: 0.573

Question: And the relative viability (NCI-H2228; first compound 0.1581 µM)?
Answer: 0.454

Question: What about the relative viability (NCI-H2228; first compound 0.5 µM) of the same compound?
Answer: 0.52

Question: What about the relative viability (NCI-H1734; first compound 0.005 µM) of the same compound?
Answer: 0.705

Question: And the relative viability (NCI-H1734; first compound 0.01581 µM)?
Answer: 0.681

Question: And the relative viability (NCI-H1734; first compound 0.1581 µM)?
Answer: 0.785

Question: And the relative viability (NCI-H1734; first compound 0.5 µM)?
Answer: 0.693

Question: And the relative viability (HOP-62; first compound 0.005 µM)?
Answer: 0.965

Question: And the relative viability (HOP-62; first compound 0.01581 µM)?
Answer: 1.09

Question: What about the relative viability (HOP-62; first compound 0.05 µM) of the same compound?
Answer: 0.926

Question: And the relative viability (HOP-62; first compound 0.1581 µM)?
Answer: 0.917

Question: What about the relative viability (HOP-62; first compound 0.5 µM) of the same compound?
Answer: 1.03

Question: And the relative viability (A-427; first compound 0.005 µM)?
Answer: 0.828

Question: What about the relative viability (A-427; first compound 0.01581 µM) of the same compound?
Answer: 0.948

Question: And the relative viability (A-427; first compound 0.05 µM)?
Answer: 0.652

Question: What about the relative viability (A-427; first compound 0.1581 µM) of the same compound?
Answer: 1.01

Question: What about the relative viability (A-427; first compound 0.5 µM) of the same compound?
Answer: 0.915

Question: And the relative viability (LC-2-ad; first compound 0.005 µM)?
Answer: 0.422

Question: What about the relative viability (LC-2-ad; first compound 0.01581 µM) of the same compound?
Answer: 0.489

Question: What about the relative viability (LC-2-ad; first compound 0.05 µM) of the same compound?
Answer: 0.538

Question: What about the relative viability (LC-2-ad; first compound 0.1581 µM) of the same compound?
Answer: 0.429

Question: And the relative viability (LC-2-ad; first compound 0.5 µM)?
Answer: 0.575

Question: And the relative viability (NCI-H2347; first compound 0.005 µM)?
Answer: 0.653

Question: What about the relative viability (NCI-H2347; first compound 0.01581 µM) of the same compound?
Answer: 0.602

Question: What about the relative viability (NCI-H2347; first compound 0.05 µM) of the same compound?
Answer: 0.2

Question: And the relative viability (NCI-H2347; first compound 0.1581 µM)?
Answer: 0.681

Question: And the relative viability (NCI-H2347; first compound 0.5 µM)?
Answer: 0.705

Question: And the relative viability (SW 1573; first compound 0.005 µM)?
Answer: 0.716

Question: And the relative viability (SW 1573; first compound 0.01581 µM)?
Answer: 0.794

Question: What about the relative viability (SW 1573; first compound 0.05 µM) of the same compound?
Answer: 0.674

Question: And the relative viability (SW 1573; first compound 0.1581 µM)?
Answer: 0.687

Question: What about the relative viability (SW 1573; first compound 0.5 µM) of the same compound?
Answer: 0.981

Question: What about the relative viability (NCI-H2126; first compound 0.005 µM) of the same compound?
Answer: 1.04

Question: What about the relative viability (NCI-H2126; first compound 0.01581 µM) of the same compound?
Answer: 1.05

Question: What about the relative viability (NCI-H2126; first compound 0.05 µM) of the same compound?
Answer: 1.07

Question: And the relative viability (NCI-H2126; first compound 0.1581 µM)?
Answer: 1.01

Question: What about the relative viability (NCI-H2126; first compound 0.5 µM) of the same compound?
Answer: 0.972

Question: And the relative viability (HCC-78; first compound 0.005 µM)?
Answer: 0.368

Question: And the relative viability (HCC-78; first compound 0.01581 µM)?
Answer: 0.376

Question: And the relative viability (HCC-78; first compound 0.1581 µM)?
Answer: 0.345

Question: What about the relative viability (HCC-78; first compound 0.5 µM) of the same compound?
Answer: 0.322

Question: And the relative viability (NCI-H1975; first compound 0.005 µM)?
Answer: 0.836

Question: And the relative viability (NCI-H1975; first compound 0.01581 µM)?
Answer: 1.07

Question: What about the relative viability (NCI-H1975; first compound 0.05 µM) of the same compound?
Answer: 1.12

Question: And the relative viability (NCI-H1975; first compound 0.1581 µM)?
Answer: 0.921

Question: What about the relative viability (NCI-H1975; first compound 0.5 µM) of the same compound?
Answer: 0.887

Question: What about the relative viability (NCI-H1792; first compound 0.005 µM) of the same compound?
Answer: 0.996

Question: What about the relative viability (NCI-H1792; first compound 0.01581 µM) of the same compound?
Answer: 1.04

Question: And the relative viability (NCI-H1792; first compound 0.05 µM)?
Answer: 0.911

Question: What about the relative viability (NCI-H1792; first compound 0.1581 µM) of the same compound?
Answer: 1

Question: What about the relative viability (NCI-H1792; first compound 0.5 µM) of the same compound?
Answer: 0.946

Question: What about the relative viability (SK-LU-1; first compound 0.005 µM) of the same compound?
Answer: 0.846

Question: And the relative viability (SK-LU-1; first compound 0.01581 µM)?
Answer: 0.975

Question: And the relative viability (SK-LU-1; first compound 0.05 µM)?
Answer: 1.14

Question: What about the relative viability (SK-LU-1; first compound 0.1581 µM) of the same compound?
Answer: 0.894

Question: And the relative viability (SK-LU-1; first compound 0.5 µM)?
Answer: 0.834

Question: And the relative viability (LXF-289; first compound 0.005 µM)?
Answer: 0.736

Question: What about the relative viability (LXF-289; first compound 0.01581 µM) of the same compound?
Answer: 0.836

Question: And the relative viability (LXF-289; first compound 0.05 µM)?
Answer: 0.787

Question: And the relative viability (LXF-289; first compound 0.1581 µM)?
Answer: 0.797

Question: What about the relative viability (LXF-289; first compound 0.5 µM) of the same compound?
Answer: 0.794

Question: What about the relative viability (HCC-15; first compound 0.005 µM) of the same compound?
Answer: 0.802

Question: What about the relative viability (HCC-15; first compound 0.01581 µM) of the same compound?
Answer: 0.848

Question: And the relative viability (HCC-15; first compound 0.05 µM)?
Answer: 0.883

Question: What about the relative viability (HCC-15; first compound 0.1581 µM) of the same compound?
Answer: 0.822

Question: What about the relative viability (HCC-15; first compound 0.5 µM) of the same compound?
Answer: 0.786

Question: What about the relative viability (NCI-H1755; first compound 0.005 µM) of the same compound?
Answer: 0.823

Question: And the relative viability (NCI-H1755; first compound 0.01581 µM)?
Answer: 0.903

Question: And the relative viability (NCI-H1755; first compound 0.05 µM)?
Answer: 0.715

Question: And the relative viability (NCI-H1755; first compound 0.1581 µM)?
Answer: 0.859

Question: What about the relative viability (NCI-H1755; first compound 0.5 µM) of the same compound?
Answer: 0.89

Question: What about the relative viability (NCI-H1915; first compound 0.005 µM) of the same compound?
Answer: 0.915

Question: What about the relative viability (NCI-H1915; first compound 0.01581 µM) of the same compound?
Answer: 0.881

Question: What about the relative viability (NCI-H1915; first compound 0.05 µM) of the same compound?
Answer: 0.877

Question: And the relative viability (NCI-H1915; first compound 0.1581 µM)?
Answer: 0.879

Question: What about the relative viability (NCI-H1915; first compound 0.5 µM) of the same compound?
Answer: 0.858

Question: What about the relative viability (PC-3 [JPC-3]; first compound 0.005 µM) of the same compound?
Answer: 1.01

Question: And the relative viability (PC-3 [JPC-3]; first compound 0.01581 µM)?
Answer: 0.986

Question: What about the relative viability (PC-3 [JPC-3]; first compound 0.05 µM) of the same compound?
Answer: 0.927

Question: What about the relative viability (PC-3 [JPC-3]; first compound 0.1581 µM) of the same compound?
Answer: 0.991

Question: And the relative viability (PC-3 [JPC-3]; first compound 0.5 µM)?
Answer: 0.963

Question: And the relative viability (LOU-NH91; first compound 0.005 µM)?
Answer: 0.766

Question: And the relative viability (LOU-NH91; first compound 0.01581 µM)?
Answer: 0.742

Question: What about the relative viability (LOU-NH91; first compound 0.05 µM) of the same compound?
Answer: 0.807

Question: And the relative viability (LOU-NH91; first compound 0.1581 µM)?
Answer: 0.731

Question: What about the relative viability (LOU-NH91; first compound 0.5 µM) of the same compound?
Answer: 0.711

Question: And the relative viability (NCI-H358; first compound 0.005 µM)?
Answer: 0.567

Question: And the relative viability (NCI-H358; first compound 0.01581 µM)?
Answer: 0.595

Question: What about the relative viability (NCI-H358; first compound 0.05 µM) of the same compound?
Answer: 0.634

Question: And the relative viability (NCI-H358; first compound 0.1581 µM)?
Answer: 0.506

Question: What about the relative viability (NCI-H358; first compound 0.5 µM) of the same compound?
Answer: 0.743
